Assay results taken from US20120295907A1, “INSECTICIDAL COMPOUNDS” (SYNGENTA CROP PROTECTION, LLC, priority 2009, published 2012).

Experiments:
Format in all cases: in vivo
Diabrotica balteata = Diabrotica balteata (Corn Root Worm) artificial diet MTP test; conditions: 120 h, 200 ppm (concentration in well 18 ppm), L2 larvae, 5 days, larval mortality, growth regulation
Thrips tabaci = Thrips tabaci (Onion Thrips) sunflower leaf disc spray test; conditions: foliar, 168 h, 200 ppm spray on sunflower leaf discs, population of mixed ages, 7 days, mortality
Myzus persicae = Myzus persicae (Green Peach Aphid) sunflower leaf disc spray test; conditions: foliar, 144 h, 200 ppm spray on sunflower leaf discs, aphid population of mixed ages, 6 DAT, mortality
Spodoptera littoralis = Spodoptera littoralis (Egyptian Cotton Leafworm) cotton leaf disc spray test; conditions: foliar, 72 h, 200 ppm spray on cotton leaf discs, L1 larvae, mortality, feeding behavior, growth regulation 3 DAT
Plutella xylostella = Plutella xylostella (Diamond Back Moth) artificial diet MTP test; conditions: 144 h, 200 ppm (concentration in well 18 ppm), L2 larvae, 6 days, larval mortality, growth regulation
Heliothis virescens = Heliothis virescens (Tobacco Budworm) egg test on artificial diet; conditions: 96 h, 200 ppm (concentration in well 18 ppm), eggs 0-24 h old on artificial diet, 4 days, egg mortality, larval mortality, growth regulation
Tetranychus urticae = Tetranychus urticae (Two-Spotted Spider Mite) bean leaf disc spray test; conditions: foliar, 192 h, 200 ppm spray on bean leaf discs, mite populations of mixed ages, 8 days, egg, larval and adult mortality, read-out: control of Tetranychus urticae

Measured: pest or weed control at 200 ppm

COc1c(NC(=O)c2ccnc(C)c2Cl)cccc1C(=O)Nc1c(Cl)cc(C(F)(C(F)(F)F)C(F)(F)C(F)(F)F)cc1Br (stereo not shown) [B93]
≥ 80%: all assays above

COc1c(NC(=O)c2cncnc2)cccc1C(=O)Nc1c(Cl)cc(C(F)(C(F)(F)F)C(F)(F)C(F)(F)F)cc1Br (stereo not shown) [B111]
≥ 80%: all assays above

COc1c(NC(=O)c2ccnc(F)c2)cccc1C(=O)Nc1c(Cl)cc(C(F)(C(F)(F)F)C(F)(F)C(F)(F)F)cc1Br (stereo not shown) [B151]
≥ 80%: all assays above

COc1c(NC(=O)c2cc(F)ccc2F)cccc1C(=O)Nc1c(Cl)cc(C(F)(C(F)(F)F)C(F)(F)C(F)(F)F)cc1Br (stereo not shown) [B153]
≥ 80%: all assays above

COc1c(NC(=O)c2ccc(Cl)cc2Cl)cccc1C(=O)Nc1c(Cl)cc(C(F)(C(F)(F)F)C(F)(F)C(F)(F)F)cc1Br (stereo not shown) [B155]
≥ 80%: all assays above

COc1c(NC(=O)c2cccc(Cl)c2C)cccc1C(=O)Nc1c(Cl)cc(C(F)(C(F)(F)F)C(F)(F)C(F)(F)F)cc1Br (stereo not shown) [B156]
≥ 80%: all assays above

COc1c(NC(=O)c2cc(F)cc(F)c2)cccc1C(=O)Nc1c(Cl)cc(C(F)(C(F)(F)F)C(F)(F)C(F)(F)F)cc1Br (stereo not shown) [B168]
≥ 80%: all assays above

COc1c(NC(=O)c2ccc([N+](=O)[O-])c(N)c2)cccc1C(=O)Nc1c(Cl)cc(C(F)(C(F)(F)F)C(F)(F)C(F)(F)F)cc1Br (stereo not shown) [B174]
≥ 80%: all assays above

COc1c(NC(=O)c2ccccc2C)cccc1C(=O)Nc1c(Cl)cc(C(F)(C(F)(F)F)C(F)(F)C(F)(F)F)cc1Cl (stereo not shown) [C4]
≥ 80%: all assays above

COc1c(NC(=O)c2ccccc2Cl)cccc1C(=O)Nc1c(Cl)cc(C(F)(C(F)(F)F)C(F)(F)C(F)(F)F)cc1Cl (stereo not shown) [C5]
≥ 80%: all assays above

COc1c(NC(=O)c2ccc(C#N)cc2)cccc1C(=O)Nc1c(Cl)cc(C(F)(C(F)(F)F)C(F)(F)C(F)(F)F)cc1Cl (stereo not shown) [C6]
≥ 80%: all assays above

COc1c(NC(=O)c2ccc(C)cc2)cccc1C(=O)Nc1c(Cl)cc(C(F)(C(F)(F)F)C(F)(F)C(F)(F)F)cc1Cl (stereo not shown) [C8]
≥ 80%: all assays above

COc1c(NC(=O)c2ccc(F)cc2)cccc1C(=O)Nc1c(Cl)cc(C(F)(C(F)(F)F)C(F)(F)C(F)(F)F)cc1Cl (stereo not shown) [C19]
≥ 80%: all assays above

COc1c(NC(=O)c2ccc(C#N)cc2)cccc1C(=O)Nc1c(Cl)cc(C(F)(C(F)(F)F)C(F)(F)F)cc1Cl [E4]
≥ 80%: all assays above

COc1c(NC(=O)c2ccc([N+](=O)[O-])cc2)cccc1C(=O)Nc1c(Cl)cc(C(F)(C(F)(F)F)C(F)(F)F)cc1Cl [E5]
≥ 80%: all assays above

COc1c(NC(=O)c2ccc([N+](=O)[O-])cc2Cl)cccc1C(=O)Nc1c(Cl)cc(C(F)(C(F)(F)F)C(F)(F)F)cc1Cl [E9]
≥ 80%: all assays above

COc1c(NC(=O)c2ccc(C(F)(F)F)cc2)cccc1C(=O)Nc1c(Cl)cc(C(F)(C(F)(F)F)C(F)(F)F)cc1Cl [E13]
≥ 80%: all assays above

COc1c(NC(=O)c2ccc(F)cc2)cccc1C(=O)Nc1c(Cl)cc(C(F)(C(F)(F)F)C(F)(F)F)cc1Cl [E17]
≥ 80%: all assays above

COc1c(NC(=O)c2ccc(F)cc2Cl)cccc1C(=O)Nc1c(C)cc(C(F)(C(F)(F)F)C(F)(F)C(F)(F)F)cc1C (stereo not shown) [F30]
≥ 80%: all assays above
